According to patent US10160755B2 (Plexxikon Inc., priority 2015, dated 2018):

Biological target: T1, BA/F3-FLT3-ITD + F691L cells (Homo sapiens, UniProt P36888, F691L, cells depend on it, form not given)
T1 sequence (P36888 1-993 F691L): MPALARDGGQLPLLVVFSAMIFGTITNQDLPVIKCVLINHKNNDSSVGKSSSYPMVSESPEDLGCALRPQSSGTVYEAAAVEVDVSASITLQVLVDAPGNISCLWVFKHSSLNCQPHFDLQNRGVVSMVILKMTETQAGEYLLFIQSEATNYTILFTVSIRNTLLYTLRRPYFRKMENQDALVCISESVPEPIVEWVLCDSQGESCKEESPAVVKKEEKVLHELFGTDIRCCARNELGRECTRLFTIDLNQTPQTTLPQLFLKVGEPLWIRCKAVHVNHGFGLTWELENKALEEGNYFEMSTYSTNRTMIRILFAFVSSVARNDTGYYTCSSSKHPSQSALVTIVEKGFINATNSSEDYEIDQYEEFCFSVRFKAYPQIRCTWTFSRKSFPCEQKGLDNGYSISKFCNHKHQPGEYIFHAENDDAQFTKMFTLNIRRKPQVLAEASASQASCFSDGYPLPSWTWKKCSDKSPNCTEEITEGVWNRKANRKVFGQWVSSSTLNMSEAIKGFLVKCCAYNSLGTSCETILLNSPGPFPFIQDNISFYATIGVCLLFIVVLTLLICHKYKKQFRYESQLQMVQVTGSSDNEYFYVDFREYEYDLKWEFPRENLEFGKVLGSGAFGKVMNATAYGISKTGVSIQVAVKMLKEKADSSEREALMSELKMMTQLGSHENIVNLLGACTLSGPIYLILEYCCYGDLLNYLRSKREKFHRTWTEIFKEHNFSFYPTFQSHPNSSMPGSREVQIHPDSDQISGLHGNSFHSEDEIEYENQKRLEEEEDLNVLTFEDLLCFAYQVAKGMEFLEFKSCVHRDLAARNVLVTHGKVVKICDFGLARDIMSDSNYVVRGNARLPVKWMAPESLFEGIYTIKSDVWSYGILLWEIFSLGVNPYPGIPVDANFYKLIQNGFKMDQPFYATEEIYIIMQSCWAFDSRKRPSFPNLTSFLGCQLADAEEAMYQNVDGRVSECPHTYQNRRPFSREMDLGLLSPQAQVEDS
Test: BA/F3-FLT3-ITD + F691L cell proliferation assay (CellTiter-Glo)
Format: cell-based, murine
Conditions: BaF3 FLT3 ITD/F691L cells; read-out: Cell Activity (IC50 μM) BaF3_FLT3_ITD/F691L
In short: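 Murine BA/F3 cells transfected with full-length FLT3 carrying ITD plus D835Y or F691L, grown without IL-3 so growth depends on FLT3. Seeded at 1×10^4 cells/well and dosed with 8 points, 10 to 0.0046 μM, 0.2% DMSO, for three days at 37 °C. IC50 from CellTiter-Glo luminescence (ATP content).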

SMILES	GI50
Cc1ncc(C#Cc2cnc3[nH]cc(-c4ccc5ncn(C(C)(C)C)c5c4)c3c2)cn1 [P-383, 1-tert-butyl-6-[5-[2-(2-methylpyrimidin-5-yl)ethynyl]-1H-pyrrolo[2,3-b]pyridin-3-yl]benzimidazole]	0.0001 to 1 µM
Cc1ncc(C#Cc2cnc3[nH]cc(-c4ccc5ncn(C(C)(C)C)c5c4)c3n2)cn1 [P-284, 7-(3-tert-butylbenzimidazol-5-yl)-2-[2-(2-methylpyrimidin-5-yl)ethynyl]-5H-pyrrolo[2,3-b]pyrazine]	0.0001 to 1 µM
c1cc(-c2cnc3[nH]cc(-c4ccc5ncn(C6CCCNC6)c5c4)c3n2)cc(N2CCCCC2)c1 (stereo not drawn) [P-337, 7-[3-(3-piperidyl)benzimidazol-5-yl]-2-[3-(1-piperidyl)phenyl]-5H-pyrrolo[2,3-b]pyrazine]	0.0001 to 1 µM
CC(C)(C)n1cnc2ccc(-c3c[nH]c4ncc(-c5ccnc(C#N)c5)cc34)cc21 [P-291, 4-[3-(3-tert-butylbenzimidazol-5-yl)-1H-pyrrolo[2,3-b]pyridin-5-yl]pyridine-2-carbonitrile]	0.0001 to 1 µM
c1cc(-c2cnc3[nH]cc(-c4ccc5ncn(C6CCCNC6)c5c4)c3n2)cc(N2CCCCC2)n1 (stereo not drawn) [P-339, 7-[3-(3-piperidyl)benzimidazol-5-yl]-2-[2-(1-piperidyl)-4-pyridyl]-5H-pyrrolo[2,3-b]pyrazine]	0.0001 to 1 µM
O=S1(=O)CCCN1c1cc(-c2cnc3[nH]cc(-c4ccc5ncn(C6CCCNC6)c5c4)c3n2)ccn1 (stereo not drawn) [P-295, 2-[4-[7-[3-(3-piperidyl)benzimidazol-5-yl]-5H-pyrrolo[2,3-b]pyrazin-2-yl]-2-pyridyl]-1,2-thiazolidine 1,1-dioxide]	0.0001 to 1 µM
CC(C)(C)n1cnc2ccc(-c3c[nH]c4ncc(-c5ccnc(N6CCCS6(=O)=O)c5)nc34)cc21 [P-294, 2-[4-[7-(3-tert-butylbenzimidazol-5-yl)-5H-pyrrolo[2,3-b]pyrazin-2-yl]-2-pyridyl]-1,2-thiazolidine 1,1-dioxide]	0.0001 to 1 µM
CCN1CCN(c2ccc(-c3cnc4[nH]cc(-c5ccc6ncn(C(C)(C)C)c6c5)c4n3)cc2)CC1 [P-358, 7-(3-tert-butylbenzimidazol-5-yl)-2-[4-(4-ethylpiperazin-1-yl)phenyl]-5H-pyrrolo[2,3-b]pyrazine]	0.0001 to 1 µM
COc1cc(C#Cc2cnc3[nH]cc(-c4ccc5ncn(C6CCCNC6)c5c4)c3n2)ccn1 (stereo not drawn) [P-280, 2-((2-methoxypyridin-4-yl)ethynyl)-7-(1-(piperidin-3-yl)-1H-benzo[d]imidazol-6-yl)-5H-pyrrolo[2,3-b]pyrazine]	0.0001 to 1 µM
CC(C)(C)n1cnc2ccc(-c3c[nH]c4ncc(-c5ccc(N6CCOCC6)nc5)cc34)cc21 [P-322, 4-[5-[3-(3-tert-butylbenzimidazol-5-yl)-1H-pyrrolo[2,3-b]pyridin-5-yl]-2-pyridyl]morpholine]	0.0001 to 1 µM
O=S1(=O)CCCN1c1cc(-c2cnc3[nH]cc(-c4ccc5ncn(C6CCCNC6)c5c4)c3c2)ccn1 (stereo not drawn) [P-311, 2-[4-[3-[3-(3-piperidyl)benzimidazol-5-yl]-1H-pyrrolo[2,3-b]pyridin-5-yl]-2-pyridyl]-1,2-thiazolidine 1,1-dioxide]	0.0001 to 1 µM
CC(C)(O)c1ncc(-c2cnc3[nH]cc(-c4ccc5ncn(C(C)(C)C)c5c4)c3n2)cn1 [P-380, 2-[5-[7-(3-tert-butylbenzimidazol-5-yl)-5H-pyrrolo[2,3-b]pyrazin-2-yl]pyrimidin-2-yl]propan-2-ol]	0.0001 to 1 µM
c1cc(N2CCCCC2)ccc1-c1cnc2[nH]cc(-c3ccc4ncn(C5CCCNC5)c4c3)c2n1 (stereo not drawn) [P-346, 7-[3-(3-piperidyl)benzimidazol-5-yl]-2-[4-(1-piperidyl)phenyl]-5H-pyrrolo[2,3-b]pyrazine]	0.0001 to 1 µM
O=S1(=O)CCCCN1c1cc(-c2cnc3[nH]cc(-c4ccc5ncn(C6CCCNC6)c5c4)c3n2)ccn1 (stereo not drawn) [P-310, 2-[4-[7-[3-(3-piperidyl)benzimidazol-5-yl]-5H-pyrrolo[2,3-b]pyrazin-2-yl]-2-pyridyl]thiazinane 1,1-dioxide]	0.0001 to 1 µM
CC(C)(C)n1cnc2ccc(-c3n[nH]c4ncc(-c5cccc(N6CCCS6(=O)=O)c5)cc34)cc21 [P-296, 2-[3-[3-(3-tert-butylbenzimidazol-5-yl)-1H-pyrazolo[3,4-b]pyridin-5-yl]phenyl]-1,2-thiazolidine 1,1-dioxide]	0.0001 to 1 µM
c1cc(-c2cnc3[nH]cc(-c4ccc5ncn(C6CCCNC6)c5c4)c3c2)cc(N2CCOCC2)c1 (stereo not drawn) [P-317, 4-[3-[3-[3-(3-piperidyl)benzimidazol-5-yl]-1H-pyrrolo[2,3-b]pyridin-5-yl]phenyl]morpholine]	0.0001 to 1 µM
COc1cnc2[nH]cc(-c3ccc4ncn(C(C)(C)C)c4c3)c2c1 [P-074, 1-tert-butyl-6-(5-methoxy-1H-pyrrolo[2,3-b]pyridin-3-yl)benzimidazole]	0.0001 to 1 µM
COc1cc(-c2cc3c(-c4ccc5ncn(C(C)(C)C)c5c4)c[nH]c3nn2)ccn1 [P-315, 5-(3-tert-butylbenzimidazol-5-yl)-3-(2-methoxy-4-pyridyl)-7H-pyrrolo[2,3-c]pyridazine]	0.0001 to 1 µM
c1cc(N2CCOCC2)ncc1-c1cnc2[nH]cc(-c3ccc4ncn(C5CCCNC5)c4c3)c2n1 (stereo not drawn) [P-325, 4-[5-[7-[3-(3-piperidyl)benzimidazol-5-yl]-5H-pyrrolo[2,3-b]pyrazin-2-yl]-2-pyridyl]morpholine]	0.0001 to 1 µM
c1cc(N2CCOCC2)ncc1-c1cnc2[nH]cc(-c3ccc4ncn(C5CCCNC5)c4c3)c2c1 (stereo not drawn) [P-321, 4-[5-[3-[3-(3-piperidyl)benzimidazol-5-yl]-1H-pyrrolo[2,3-b]pyridin-5-yl]-2-pyridyl]morpholine]	0.0001 to 1 µM
CC(C)(C)n1cnc2ccc(-c3c[nH]c4ncc(-c5ccnc(N6CCCCC6)c5)nc34)cc21 [P-338, 7-(3-tert-butylbenzimidazol-5-yl)-2-[2-(1-piperidyl)-4-pyridyl]-5H-pyrrolo[2,3-b]pyrazine]	0.0001 to 1 µM
CC(C)(C)n1cnc2ccc(-c3c[nH]c4ncc(-c5ccc(N6CCOCC6)nc5)nc34)cc21 [P-326, 4-[5-[7-(3-tert-butylbenzimidazol-5-yl)-5H-pyrrolo[2,3-b]pyrazin-2-yl]-2-pyridyl]morpholine]	0.0001 to 1 µM
CCN1CCN(c2cc(-c3cnc4[nH]cc(-c5ccc6ncn(C7CCCNC7)c6c5)c4n3)ccn2)CC1 (stereo not drawn) [P-327, 2-[2-(4-ethylpiperazin-1-yl)-4-pyridyl]-7-[3-(3-piperidyl)benzimidazol-5-yl]-5H-pyrrolo[2,3-b]pyrazine]	0.0001 to 1 µM
Cc1ncc(-c2cnc3[nH]cc(-c4ccc5ncn(C(C)(C)C)c5c4)c3n2)cn1 [P-289, 7-(3-tert-butylbenzimidazol-5-yl)-2-(2-methylpyrimidin-5-yl)-5H-pyrrolo[2,3-b]pyrazine]	0.0001 to 1 µM
COc1ncc(-c2cnc3[nH]cc(-c4ccc5ncn(C(C)(C)C)c5c4)c3n2)cc1C#N [P-405, 5-[7-(3-tert-butylbenzimidazol-5-yl)-5H-pyrrolo[2,3-b]pyrazin-2-yl]-2-methoxy-pyridine-3-carbonitrile]	0.0001 to 1 µM
CN1CCN(c2cccc(-c3cnc4[nH]cc(-c5ccc6ncn(C7CCCNC7)c6c5)c4n3)c2)CC1 (stereo not drawn) [P-332, 2-[3-(4-methylpiperazin-1-yl)phenyl]-7-[3-(3-piperidyl)benzimidazol-5-yl]-5H-pyrrolo[2,3-b]pyrazine]	0.0001 to 1 µM
COc1ncc(-c2cnc3[nH]cc(-c4ccc5ncn(C6CCCNC6)c5c4)c3c2)cn1 (stereo not drawn) [P-276, 5-(2-methoxypyrimidin-5-yl)-3-[3-(3-piperidyl)benzimidazol-5-yl]-1H-pyrrolo[2,3-b]pyridine]	10 to 200 µM
CCN1CCN(c2ccc(-c3cnc4[nH]cc(-c5ccc6ncn(C7CCCNC7)c6c5)c4n3)cn2)CC1 (stereo not drawn) [P-366, 2-[6-(4-ethylpiperazin-1-yl)-3-pyridyl]-7-[3-(3-piperidyl)benzimidazol-5-yl]-5H-pyrrolo[2,3-b]pyrazine]	0.0001 to 1 µM
CCN1CCN(c2ccc(-c3cnc4[nH]cc(-c5ccc6ncn(C7CCCNC7)c6c5)c4n3)cc2)CC1 (stereo not drawn) [P-359, 2-[4-(4-ethylpiperazin-1-yl)phenyl]-7-[3-(3-piperidyl)benzimidazol-5-yl]-5H-pyrrolo[2,3-b]pyrazine]	0.0001 to 1 µM
CN1CCN(c2ccc(-c3cnc4[nH]cc(-c5ccc6ncn(C(C)(C)C)c6c5)c4n3)cc2)CC1 [P-341, 7-(3-tert-butylbenzimidazol-5-yl)-2-[4-(4-methylpiperazin-1-yl)phenyl]-5H-pyrrolo[2,3-b]pyrazine]	0.0001 to 1 µM
